Tests used:
Assay type in all cases: cell-based, mice
Ly6C+CD11b+ MDSCs [1] = test: 3H-thymidine proliferation assay: MDSC suppression of B-cell responsiveness with VISTA−/− responder spleen cells (α-CD40 and IL-4); details: FIG. 5A
Method: (§1) 3H-Thymidine incorporation proliferation assays. For responder cells, 5×10^5 non-infected spleen cells, which were either non-fractionated or CD19+ purified, were plated into 96 well flat bottom plates along with 1.6×105 (unless otherwise indicated) CD11b+Ly6G+, or CD11b+Ly6C+, enriched suppressor cells obtained from spleens of 5-w.p.i. LP-BM5 mice of the indicated w.t. B6 or B6 knock-out strains. […] For the percent suppression calculation, first, the percent residual responsiveness (R) was calculated as follows: R=(cpm of co-cultured responder cells and experimental suppressor cells)[…](cpm of co-cultured responder cells and control, non-infected suppressor cells)×100%. Standard deviations of the mean were determined for triplicate wells, and were statistically compared by the two-tailed, two sample equal variance, Student T test. […]
This example relates to the experiments in FIG. 5. […] The % suppression was calculated for both (A) and (B) by cpm responder 3H thymidine incorporation. […]

[2] = system: monocytic MDSCs (Ly6C+CD11b+); test: CFSE dilution proliferation assay of CD19+ B cells with monocytic MDSCs; details: FIG. 4, w.t. MDSCs, CFSE labeled VISTA−/− responders
Method: CFSE dilution proliferation assays. Naïve responder splenocytes were labeled with 5.iM CFSE (Cell trace, CFSE proliferation Kit, Molecular Probes, Eugene, Oreg.) in PBS/0.5% BSA for 10 minutes at 37° C. followed by the addition of cold 10% FBS in RPM1 for 5 minutes on ice. After three cold 10% FCS/RPMI washes, cell cultures were set up in the same manner as that for the 3H-thymidine incorporation proliferation assays described above. On culture day 4, wells were stained with monoclonal antibody (mAb): ct-CD19-PerCP (Biolegend, San Diego, Calif.) and were analyzed on a FACSCalibur flow cytometer (BD bioscience, San Jose, Calif.).
This example relates to the experiments in FIG. 4. In these experiments purified monocytic MDSCs (Ly6C+CD11b+) from 5 week LP-BM5 infected mice of the indicated strains, show differing patterns of suppression of naïve VISTA−/− spleen cell proliferation as assessed by flow cytometry. CFSE labeled VISTA−/− responder cells were cultured for […] in the presence (+) or absence (−) of ct-CD40+ IL-4, and with or without monocytic MDSCs (a) (−); (b) (+) (grey shaded curves); (c) (+), W.t. MDSCs (in black open curves); (d) (+), DNMMA treated W.t. […] MDSCs; Cells from all cultures were stained at the termination of a four day incubation, with ct-CD19 fluorochrome conjugated mAb and CFSE dilution was also assessed by FACS. […]

Ly6C+CD11b+ MDSCs [3] = test: 3H-thymidine proliferation assay: MDSC suppression of T-cell responsiveness, w.t. B6 responder spleen cells stimulated with Con A; details: FIG. 2B, MDSCs pretreated with 0.8 mM L-NMMA or 80 ug/ml α-VISTA (13F3), R:S 3:1, three days
Method: as §1

Ly6C+CD11b+ MDSCs [4] = test: 3H-thymidine proliferation assay: MDSC suppression of B-cell responsiveness, w.t. B6 responder spleen cells stimulated with α-CD40 and IL-4; details: FIG. 2A; MDSCs pretreated one hour with 0.8 mM L-NMMA or 80 ug/ml α-VISTA (13F3); R:S 3:1; three days
Method: as §1

In the case of `CNC(=N)NCCC[C@H](N)C(=O)O` [LNMMA, NG-monomethyl-L-Arginine], the “extent of blocking of VISTA−/− MDSC suppression of B-cell responsiveness” value (Ly6C+CD11b+ MDSCs [1]; MDSC of VISTA−/− origin) is reported as roughly 100%, the “blocking of w.t. MDSC suppression of B-cell responsiveness” value (Ly6C+CD11b+ MDSCs [1]; w.t. MDSC) is reported as “partially blocked” and the “restoration of B-cell proliferation curve towards control B cells stimulated in absence of MDSCs (CFSE)” value [2] is reported as “partially restored”. For the same molecule, the “blocking of MDSC suppression of T-cell responsiveness” value (Ly6C+CD11b+ MDSCs [3]) was “essentially completely dependent on iNOS/NO” and the “blocking of MDSC suppression of B-cell responsiveness” value (Ly6C+CD11b+ MDSCs [4]) was roughly 50%.
